Reference: patent US20120088759A1, “THIAZOLIDIN-4-ONE AND [1,3]-THIAZINAN-4-ONE COMPOUNDS AS OREXIN RECEPTOR ANTAGONISTS” (priority 2009, published 2012)

Experiments:
human orexin-1 receptor = molecular target: T1, human orexin-1 receptor (Homo sapiens, UniProt O43613); assay: FLIPR intracellular calcium assay, orexin receptor antagonistic activity (OX1); format: cell-based; conditions: CHO cells expressing human orexin-1 receptor; 3 nM orexin-A; normalized to on-plate reference; *n = geometric mean from n values
T1 construct: expressed in transfected cells; host or cells: CHO (Chinese hamster ovary) cells, kept under G418
T1 sequence (O43613 1-425): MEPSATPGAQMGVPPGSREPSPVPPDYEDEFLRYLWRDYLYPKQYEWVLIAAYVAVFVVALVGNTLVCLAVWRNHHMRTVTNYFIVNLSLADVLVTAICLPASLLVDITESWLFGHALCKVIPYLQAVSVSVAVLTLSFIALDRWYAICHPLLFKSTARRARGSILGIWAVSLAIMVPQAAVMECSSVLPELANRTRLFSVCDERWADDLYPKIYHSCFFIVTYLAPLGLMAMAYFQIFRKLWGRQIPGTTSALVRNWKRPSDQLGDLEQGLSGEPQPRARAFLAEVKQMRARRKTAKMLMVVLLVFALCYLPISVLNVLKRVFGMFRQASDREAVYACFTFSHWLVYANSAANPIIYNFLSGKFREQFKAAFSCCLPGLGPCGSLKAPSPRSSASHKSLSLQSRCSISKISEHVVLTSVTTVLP
Description: (§1) The orexin receptor antagonistic activity of the compounds of formula (I) is determined in accordance with the following experimental method.
(§2) Chinese hamster ovary (CHO) cells expressing the human orexin-1 receptor and the human orexin-2 receptor, respectively, are grown in culture medium (Ham F-12 with L-Glutamine) containing 300 μg/ml G418, 100 U/ml penicillin, 100 μg/ml streptomycin and 10% heat inactivated fetal calf serum (FCS). The cells are seeded at 20′000 cells/well into 384-well black clear bottom sterile plates (Greiner). The seeded plates are incubated overnight at 37° C. in 5% CO2.
(§3) Human orexin-A as an agonist is prepared as 1 mM stock solution in MeOH:water (1:1), diluted in HBSS containing 0.1% bovine serum albumin (BSA), NaHCO3: 0.375 g/l and 20 mM HEPES for use in the assay at a final concentration of 3 nM.
(§4) Antagonists are prepared as 10 mM stock solution in DMSO, then diluted in 384-well plates using DMSO followed by a transfer of the dilutions into in HBSS containing 0.1% bovine serum albumin (BSA), NaHCO3: 0.375 g/l and 20 mM HEPES. On the day of the assay, 50 μl of staining buffer (HBSS containing 1% FCS, 20 mM HEPES, NaHCO3: 0.375 g/l, 5 mM probenecid (Sigma) and 3 μM of the fluorescent calcium indicator fluo-4 AM (1 mM stock solution in DMSO, containing 10% pluronic) is added to each well. The 384-well cell-plates are incubated for 50 min at 37° C. in 5% CO2 followed by equilibration at rt for 30-120 min before measurement.
(§5) Within the Fluorescent Imaging Plate Reader (FLIPR Tetra, Molecular Devices), antagonists are added to the plate in a volume of 10 μl/well, incubated for 10 min and finally 10 μl/well of agonist is added. Fluorescence is measured for each well at 1 second intervals, and the height of each fluorescence peak is compared to the height of the fluorescence peak induced by 3 nM orexin-A with vehicle in place of antagonist. For each antagonist, the IC50 value (the concentration of compound needed to inhibit 50% of the agonistic response) is determined and normalized using the obtained IC50 value of a on-plate reference compound. Optimized conditions were achieved by adjustment of pipetting speed and cell splitting regime. The calculated IC50 values of the compounds may fluctuate depending on the daily cellular assay performance. Fluctuations of this kind are known to those skilled in the art.

human orexin-2 receptor = molecular target: T2, human orexin-2 receptor (Homo sapiens, UniProt O43614); assay: FLIPR intracellular calcium assay, orexin receptor antagonistic activity (OX2); format: cell-based; conditions: CHO cells expressing human orexin-2 receptor; 3 nM orexin-A; normalized to on-plate reference; *n = geometric mean from n values
T2 construct: expressed in transfected cells; host or cells: CHO (Chinese hamster ovary) cells, kept under G418
T2 sequence (O43614 1-444): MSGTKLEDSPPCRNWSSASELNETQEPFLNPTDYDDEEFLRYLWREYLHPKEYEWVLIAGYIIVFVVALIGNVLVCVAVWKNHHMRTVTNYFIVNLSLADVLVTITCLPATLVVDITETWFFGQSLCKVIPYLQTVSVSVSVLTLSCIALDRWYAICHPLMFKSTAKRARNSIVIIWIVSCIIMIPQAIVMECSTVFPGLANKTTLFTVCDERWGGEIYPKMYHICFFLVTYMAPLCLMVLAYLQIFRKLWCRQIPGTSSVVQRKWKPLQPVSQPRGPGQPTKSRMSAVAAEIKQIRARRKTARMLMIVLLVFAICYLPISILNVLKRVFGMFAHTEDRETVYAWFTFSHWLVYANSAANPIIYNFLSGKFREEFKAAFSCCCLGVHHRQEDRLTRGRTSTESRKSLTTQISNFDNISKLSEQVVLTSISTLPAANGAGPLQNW
Description: as §1, §2, §3, §4, §5

rat [1] = conditions: rat model; cited from earlier work
rat [2] = conditions: cited from earlier work
rat [3] = conditions: cited from earlier work; remark: listed apart in the source

Row | SMILES | IC50 (human orexin-1 receptor) [nM] | IC50 (human orexin-2 receptor) [nM] | memory function (rat [1]) | activity in a rat model of post-traumatic stress disorder (rat [2]) | alertness, characterized by active wake and locomotion (rat [3]) | time spent in both REM and NREM sleep (rat [3])
1 | COc1cccc(OC)c1C1SCC(=O)N1Cc1ccc(Oc2ncccc2C)cc1 (stereo not drawn) [Example 285, 2-(2,6-Dimethoxy-phenyl)-3-[4-(3-methyl-pyridin-2-yloxy)-benzyl]-thiazolidin-4-one] | 1220 | 135 |  |  |  | 
2 | CCOc1ccc(CN2C(=O)CSC2c2c(OC)ccc3cccnc23)cc1 (stereo not drawn) [Example 21, 3-(4-Ethoxy-benzyl)-2-(7-methoxy-quinolin-8-yl)-thiazolidin-4-one] | 1450 | 60 |  |  |  | 
3 | CCOc1ccc(CN2C(=O)CSC2c2c(OC)cccc2OCC)cc1 (stereo not drawn) [Example 15, 3-(4-Ethoxy-benzyl)-2-(2-ethoxy-6-methoxy-phenyl)-thiazolidin-4-one] | 853 | 48 |  |  |  | 
4 | CCOc1ccc(CN2C(=O)CSC2c2c(OC)ccc3nc(C)oc23)cc1 (stereo not drawn) [Example 20, 3-(4-Ethoxy-benzyl)-2-(6-methoxy-2-methyl-benzooxazol-7-yl)-thiazolidin-4-one] | 1560 | 342 |  |  |  | 
5 | COc1cc(F)cc(OC)c1C1SC(C)C(=O)N1Cc1ccc(OC(F)(F)F)cc1 (stereo not drawn) [Example 36, 2-(4-Fluoro-2,6-dimethoxy-phenyl)-5-methyl-3-(4-trifluoromethoxy-benzyl)-thiazolidin-4-one] | 171 | 33 |  |  |  | 
6 | COc1cccc(OC)c1C1SCC(=O)N1Cc1ccc(OC(F)F)cc1 (stereo not drawn) [Example 4, 3-(4-Difluoromethoxy-benzyl)-2-(2,6-dimethoxy-phenyl)-thiazolidin-4-one] | 377 | 27 |  |  |  | 
7 | COc1cccc(OC)c1C1SCC(=O)N1Cc1ccc(Oc2cccnc2)cc1 (stereo not drawn) [Example 278, 2-(2,6-Dimethoxy-phenyl)-3-[4-(pyridin-3-yloxy)-benzyl]-thiazolidin-4-one] | 1030 | 10 |  |  |  | 
8 | CCOc1ccc(CN2C(=O)CSC2c2c(OC)cncc2OC)cc1 (stereo not drawn) [Example 29, 2-(3,5-Dimethoxy-pyridin-4-yl)-3-(4-ethoxy-benzyl)-thiazolidin-4-one] | 1050 | 36 |  |  |  | 
9 | COc1ccnc(OC)c1C1SCC(=O)N1Cc1ccc(OC(F)(F)F)cc1 (stereo not drawn) [Example 25, 2-(2,4-Dimethoxy-pyridin-3-yl)-3-(4-trifluoromethoxy-benzyl)-thiazolidin-4-one] | 561 | 16 |  |  |  | 
10 | CNC(=O)[C@@H](c1ccccc1)N1CCc2cc(OC)c(OC)cc2[C@@H]1CCc1ccc(C(F)(F)F)cc1 [(2R)-2-{(1S)-6,7-dimethoxy-1-[2-(4-trifluoromethyl-phenyl)-ethyl]-3,4-dihydro-1H-isoquinolin-2-yl}-N-methyl-2-phenylacetamide] |  |  | enhance memory function | active | decrease alertness | dose-dependently increase
11 | COc1cccc(OC)c1C1SCC(=O)N1Cc1ccc2ccccc2n1 (stereo not drawn) [Example 27, 2-(2,6-Dimethoxy-phenyl)-3-quinolin-2-ylmethyl-thiazolidin-4-one] | 154 | 18 |  |  |  | 
